From ChEMBL document CHEMBL1201862, “PubChem BioAssay data set” (2004)
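Cells were grown in 96-well plates and exposed to each compound for 48 hours at five concentrations; endpoints were interpolated linearly between bracketing concentrations, or set to the highest concentration if not reached. Here, GI50 denotes the concentration required for 50% inhibition of growth.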 The source made the active and inactive calls. Cut-off read from the data, not from the text of the source: active = GI50 up to about 1.1 µM and inactive = higher.

What was measured:
Assay in all cases: NCI tumour cell line growth inhibition, 48 h
OVCAR-3 = system: OVCAR-3
NCI-H460 = system: NCI-H460
HCC 2998 = system: HCC 2998
LOX IMVI = system: LOX IMVI
PC-3 = system: PC-3
COLO 205 = system: COLO 205
SW-620 = system: SW-620
MDA-MB-435 = system: MDA-MB-435
Hs-578T = system: Hs-578T
OVCAR-5 = system: OVCAR-5
A498 = system: A498
K562 = system: K562
HOP-62 = system: HOP-62
OVCAR-4 = system: OVCAR-4
ACHN = system: ACHN
HCT-15 = system: HCT-15
SK-MEL-5 = system: SK-MEL-5
SNB-19 = system: SNB-19
OVCAR-8 = system: OVCAR-8
SF-268 = system: SF-268
T47D = system: T47D
UO-31 = system: UO-31
MDA-MB-231 = system: MDA-MB-231
CCRF-CEM = system: CCRF-CEM
NCI/ADR-RES = system: NCI/ADR-RES
NCI-H226 = system: NCI-H226
NCI-H23 = system: NCI-H23
HL-60 = system: HL-60
M14 = system: M14
RPMI-8226 = system: RPMI-8226
CAKI-1 = system: CAKI-1
UACC-257 = system: UACC-257
MOLT-4 = system: MOLT-4
EKVX = system: EKVX
MDA-N = system: MDA-N
SN12C = system: SN12C
DU-145 = system: DU-145
SK-MEL-28 = system: SK-MEL-28
786-0 = system: 786-0
SF-539 = system: SF-539
SF-295 = system: SF-295
UACC-62 = system: UACC-62
SK-MEL-2 = system: SK-MEL-2
KM12 = system: KM12
NCI-H522 = system: NCI-H522
IGROV-1 = system: IGROV-1
SR = system: SR
BT-549 = system: BT-549
MCF7 = system: MCF7
A549 = system: A549
SNB-75 = system: SNB-75
SK-OV-3 = system: SK-OV-3
TK-10 = system: TK-10
U-251 = system: U-251
Malme-3M = system: Malme-3M
HCT-116 = system: HCT-116
RXF 393 = system: RXF 393
HT-29 = system: HT-29

Measured: GI50

Nc1nc(SC/C=C/c2ccccc2)c2[nH]cnc2n1
32.8 µM: HCT-15
inactive: OVCAR-3 30.4 µM | NCI-H460 72.1 µM | HCC 2998 > 100 µM | LOX IMVI 53.1 µM | PC-3 > 100 µM | COLO 205 > 100 µM | SW-620 > 100 µM | MDA-MB-435 > 100 µM | Hs-578T 16.7 µM | OVCAR-5 > 100 µM | A498 > 100 µM | K562 63.2 µM | HOP-62 83.2 µM | OVCAR-4 > 100 µM | ACHN 97.9 µM | SK-MEL-5 > 100 µM | SNB-19 > 100 µM | OVCAR-8 74.5 µM | SF-268 74.8 µM | T47D > 100 µM | UO-31 46.8 µM | MDA-MB-231 > 100 µM | CCRF-CEM 54.2 µM | NCI/ADR-RES 48.9 µM | NCI-H226 35.2 µM | NCI-H23 > 100 µM | HL-60 54.7 µM | M14 71.8 µM | RPMI-8226 91.4 µM | CAKI-1 38.7 µM | UACC-257 > 100 µM | MOLT-4 > 100 µM | EKVX > 100 µM | MDA-N > 100 µM | SN12C > 100 µM | DU-145 94.2 µM | SK-MEL-28 > 100 µM | 786-0 > 100 µM | SF-539 > 100 µM | SF-295 > 100 µM | UACC-62 > 100 µM | SK-MEL-2 91 µM | KM12 > 100 µM | NCI-H522 19.5 µM | IGROV-1 22.2 µM | SR 45.7 µM | BT-549 28.2 µM | MCF7 > 100 µM | A549 > 100 µM | SNB-75 28.6 µM | SK-OV-3 > 100 µM | TK-10 22.4 µM | U-251 > 100 µM | Malme-3M > 100 µM | HCT-116 > 100 µM | RXF 393 51.5 µM | HT-29 > 100 µM

CCCCCCCCCCCCOC1C(COCCN2CCCCC2)OC2OC(C)(C)OC21 (stereo not drawn)
1.79 µM: HCT-15
inactive: OVCAR-3 2.5 µM | NCI-H460 1.9 µM | HCC 2998 1.64 µM | LOX IMVI 1.55 µM | PC-3 1.75 µM | COLO 205 1.66 µM | SW-620 1.77 µM | MDA-MB-435 1.76 µM | Hs-578T 2 µM | OVCAR-5 1.85 µM | A498 14.8 µM | HOP-62 1.84 µM | ACHN 2.12 µM | SK-MEL-5 1.58 µM | SNB-19 2.5 µM | OVCAR-8 1.8 µM | SF-268 2.67 µM | T47D 1.94 µM | UO-31 1.59 µM | MDA-MB-231 1.91 µM | NCI/ADR-RES 4.3 µM | NCI-H226 3.99 µM | NCI-H23 2.47 µM | HL-60 1.24 µM | M14 1.63 µM | RPMI-8226 1.52 µM | CAKI-1 1.73 µM | UACC-257 1.74 µM | MOLT-4 1.53 µM | MDA-N 1.53 µM | SN12C 2.21 µM | DU-145 10 µM | SK-MEL-28 1.82 µM | 786-0 1.73 µM | SF-539 1.76 µM | SF-295 1.69 µM | UACC-62 1.84 µM | SK-MEL-2 1.73 µM | KM12 1.64 µM | NCI-H522 1.59 µM | IGROV-1 1.83 µM | BT-549 2.21 µM | MCF7 1.73 µM | A549 6.58 µM | SK-OV-3 4.08 µM | TK-10 1.83 µM | U-251 2.02 µM | Malme-3M 1.86 µM | HCT-116 1.67 µM | RXF 393 1.7 µM | HT-29 1.21 µM
active: K562 1.11 µM | CCRF-CEM 1.1 µM | SR < 0.01 µM
